Each compound was assayed against T1, Human factor Xa (Homo sapiens, UniProt P00742) (assay: Xa Assay). Details: 100 µM.
T1 construct: leads from XII to XIIa to XIa to IXa and to the conversion of X to Xa; purchased Enzyme Research Laboratories, South Bend IN
Type: biochemical

T1 sequence (P00742 235-488 limits assumed): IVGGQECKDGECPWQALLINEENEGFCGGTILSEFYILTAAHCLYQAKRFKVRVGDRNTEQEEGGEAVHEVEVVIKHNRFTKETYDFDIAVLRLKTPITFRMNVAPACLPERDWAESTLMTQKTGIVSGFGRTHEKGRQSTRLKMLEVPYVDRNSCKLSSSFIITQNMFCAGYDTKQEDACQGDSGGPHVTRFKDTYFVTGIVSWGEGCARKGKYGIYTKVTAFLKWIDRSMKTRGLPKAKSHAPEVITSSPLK
T1 sequence (P00742 41-179 limits assumed): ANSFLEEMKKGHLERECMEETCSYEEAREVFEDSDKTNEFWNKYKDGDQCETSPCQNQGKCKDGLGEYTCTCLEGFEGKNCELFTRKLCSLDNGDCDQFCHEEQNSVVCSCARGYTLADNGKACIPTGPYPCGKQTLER

Compound | % Inhibition Factor Xa (100 µM)
O=C(Cn1c(-c2cccc(Cl)c2)c(Cl)nc(NCCc2cccc(Cl)c2)c1=O)NCCc1cccnc1 [Example E-0092] | 3%
O=C(Cn1c(-c2cccc(Cl)c2)c(Cl)nc(NCc2ccccc2)c1=O)NCCc1ccncc1 [Example E-0085] | 0%
O=C(Cn1c(-c2cccc(Cl)c2)c(Cl)nc(NCCc2cccc(Cl)c2)c1=O)NCCc1cccnc1 [Example E-0080] | 4%
O=C(Cn1c(-c2cccc(Cl)c2)c(Cl)nc(NCCc2ccc(Cl)cc2)c1=O)NCCc1cccnc1 [Example E-0095] | 4%

Second part, the compound after the results:

% Inhibition Factor Xa (100 µM) | Compound
1% | O=C(Cn1c(-c2ccc(Cl)cc2)c(Cl)nc(NCCc2ccc(Cl)cc2)c1=O)NCCc1ccncc1 [Example E-0020]
4% | O=C(Cn1c(-c2cccc(Cl)c2)c(Cl)nc(NCc2ccccc2)c1=O)NCCc1cccnc1 [Example E-0086]
0% | O=C(Cn1c(-c2ccc(Cl)cc2)c(Cl)nc(NCc2ccncc2)c1=O)NCCc1ccncc1 [Example E-0032]
0% | O=C(Cn1c(-c2ccc(Cl)cc2)c(Cl)nc(NCCN2CCOCC2)c1=O)NCCc1ccncc1 [Example E-0031]
3% | COc1ccc(-c2c(Cl)nc(NCCc3cccc(Cl)c3)c(=O)n2CC(=O)NCCc2ccncc2)cc1 [Example E-0103]
0% | O=C(Cn1c(-c2ccc(Cl)cc2)c(Cl)nc(NCCc2ccc(Cl)cc2)c1=O)NCCc1ccncc1 [Example E-0028]
0% | O=C(Cn1c(-c2ccc(Cl)cc2)c(Cl)nc(NCc2ccccc2)c1=O)NCCc1ccncc1 [Example E-0025]

Same assay, conditions: % inhibition at 30 µM (cells with % or %@30, bare 0)

Compound | IC50 or % Inhibition Factor Xa (30 µM)
N=C(N)c1ccc(CNC(=O)Cn2c(-c3ccccc3)c(Cl)nc(NC(c3ccccc3)c3ccccc3)c2=O)cc1 [1507-35] | 28%
N=C(N)c1ccc(CNC(=O)Cn2c(-c3ccccc3)c(Cl)nc(NC3CCS(=O)(=O)C3)c2=O)cc1 (stereo not drawn) [1507-36] | 0%
N=C(N)c1ccc(CNC(=O)Cn2c(-c3ccc4c(c3)OCO4)c(Cl)nc(NCCc3cccc(Cl)c3)c2=O)cc1 [1471-46] | 21%
Cc1c(Cl)nc(NCCc2ccncc2)c(=O)n1CC(=O)NCc1ccc(C(=N)N)cc1 [1471-5] | 12%
N=C(N)c1ccc(CNC(=O)Cn2c(-c3cccc(Cl)c3)c(Cl)nc(NCCc3ccccc3)c2=O)cc1 [1471-31] | 17%
C[C@@H](C(=O)NCc1ccc(C(=N)N)cc1)n1c(-c2ccccc2)c(Cl)nc(NCc2ccccc2)c1=O [1517-03] | 0%
CC(C)Nc1nc(Cl)c(-c2ccc(Cl)nc2)n(CC(=O)NCc2ccc(C(=N)N)cc2F)c1=O [compound 74] | 13%
N=C(N)c1ccc(CNC(=O)Cn2c(-c3cccc(Cl)c3)c(Cl)nc(NCCc3cccc(Cl)c3)c2=O)cc1 [1471-30] | 41%
CCc1c(Cl)nc(NCCN2CCOCC2)c(=O)n1CC(=O)NCc1ccc(C(=N)N)cc1 [1471-60] | 0%
N=C(N)c1ccc(CNC(=O)Cn2c(-c3cccc(Cl)c3)c(Cl)nc(NCCc3cccnc3)c2=O)cc1 [1471-32] | 25%
CC(C)(C)CCNc1nc(Cl)c(-c2ccccc2)n(CC(=O)NCc2ccc(C(=N)N)cc2)c1=O [1517-41] | 0%
CCc1c(Cl)nc(NCc2ccncc2)c(=O)n1CC(=O)NCc1ccc(C(=N)N)cc1 [1471-59] | 0%
N=C(N)c1ccc(CNC(=O)Cn2c(-c3ccsc3)c(Cl)nc(NCCc3ccccc3)c2=O)cc1 [1517-13] | 0%
N=C(N)c1ccc(CNC(=O)Cn2c(-c3ccccc3)c(Cl)nc(NCCCN3CCCC3=O)c2=O)cc1 [1507-19] | 4%
CSCC(C(=O)NCc1ccc(C(=N)N)cc1)n1c(-c2ccccc2)c(Cl)nc(NCc2ccccc2)c1=O (stereo not drawn) [1517-04] | 0%
N=C(N)c1ccc(CNC(=O)Cn2c(-c3ccccc3)c(Cl)nc(NCc3cc(F)c(F)c(F)c3)c2=O)cc1 [1512-32] | 5%
CN1CCCC1CCNc1nc(Cl)c(-c2ccccc2)n(CC(=O)NCc2ccc(C(=N)N)cc2)c1=O (stereo not drawn) [1512-46] | 10%
CCCCC(CC)Nc1nc(Cl)c(-c2ccccc2)n(CC(=O)NCc2ccc(C(=N)N)cc2)c1=O (stereo not drawn) [1512-12] | 5%
N=C(N)c1ccc(CNC(=O)Cn2c(-c3ccccc3)c(Cl)nc(NCC3COc4ccccc4O3)c2=O)cc1 (stereo not drawn) [1512-01] | 4%
Cc1c(Cl)nc(NCc2ccncc2)c(=O)n1CC(=O)NCc1ccc(C(=N)N)cc1 [1471-3] | 0%
N=C(N)c1ccc(CNC(=O)Cn2c(-c3ccccc3)c(Cl)nc(NCc3ccc(C(F)(F)F)cc3F)c2=O)cc1 [1512-26] | 5%
N=C(N)c1ccc(CNC(=O)Cn2c(-c3ccc(Cl)cc3)c(Cl)nc(NCCc3ccc(Cl)cc3)c2=O)cc1 [1471-18] | 26%
N=C(N)c1ccc(CNC(=O)Cn2c(-c3ccccc3)c(Cl)nc(NCc3cc(Cl)ccc3Cl)c2=O)cc1 [1512-35] | 4%
C[C@@H](C(=O)NCc1ccc(C(=N)N)cc1)n1c(-c2ccccc2)c(Cl)nc(NC2CCC2)c1=O [1517-09] | 0%
N=C(N)c1ccc(CNC(=O)Cn2c(-c3cccc(Cl)c3)c(Cl)nc(NCCc3ccncc3)c2=O)cc1 [1471-29] | 21%

Second part, the compound after the results:

IC50 or % Inhibition Factor Xa (30 µM) | Compound
0% | N=C(N)c1ccc(CNC(=O)Cn2c(-c3cccc(N)c3)c(Cl)nc(NC3CCC3)c2=O)cc1F [Example 40]
0% | CCc1c(Cl)nc(NCCc2ccncc2)c(=O)n1CC(=O)NCc1ccc(C(=N)N)cc1 [1471-61]
8% | N=C(N)c1ccc(CNC(=O)Cn2c(-c3ccccc3)c(Cl)nc(NCc3ccc(Cl)cc3)c2=O)cc1 [1507-46]
4% | Cc1c(Cl)nc(NCCc2ccccc2)c(=O)n1CC(=O)NCc1ccc(C(=N)N)cc1 [1471-7]
0% | CCCC(CCC)Nc1nc(Cl)c(-c2ccccc2)n(CC(=O)NCc2ccc(C(=N)N)cc2)c1=O [1517-26]
14% | Cc1c(Cl)nc(NCCc2cccc(Cl)c2)c(=O)n1CC(=O)NCc1ccc(C(=N)N)cc1 [1471-6]
22% | N=C(N)c1ccc(CNC(=O)Cn2c(-c3ccc4c(c3)OCO4)c(Cl)nc(NCCc3ccccc3)c2=O)cc1 [1471-47]
11% | N=C(N)c1ccc(CNC(=O)Cn2c(-c3ccccc3)c(Cl)nc(NCc3cc(C(F)(F)F)cc(C(F)(F)F)c3)c2=O)cc1 [1507-40]
10% | CC(C)Nc1nc(Cl)c(-c2cccc(N)c2)n(CC(=O)NCCc2ccc(C(=N)N)cc2)c1=O [Example 62]
0% | CCCNc1nc(Cl)c(-c2ccccc2)n(CC(=O)NCc2ccc(C(=N)N)cc2)c1=O [1517-33]
10% | N=C(N)c1ccc(CNC(=O)Cn2c(-c3ccccc3)c(Cl)nc(NCCCn3ccnc3)c2=O)cc1 [1507-05]
5% | CCOc1ccccc1CNc1nc(Cl)c(-c2ccccc2)n(CC(=O)NCc2ccc(C(=N)N)cc2)c1=O [1512-11]
0% | C[C@H](C(=O)NCc1ccc(C(=N)N)cc1)n1c(-c2ccccc2)c(Cl)nc(NCCc2cccc(Cl)c2)c1=O [1517-23]
0% | C[Si](C)(C)CNc1nc(Cl)c(-c2ccccc2)n(CC(=O)NCc2ccc(C(=N)N)cc2)c1=O [1517-36]
0% | N=C(N)c1ccc(CNC(=O)Cn2c(-c3c(Cl)cccc3Cl)c(Cl)nc(NCc3ccccc3)c2=O)cc1 [1517-06]
0% | Cc1c(Cl)nc(NCCN2CCOCC2)c(=O)n1CC(=O)NCc1ccc(C(=N)N)cc1 [1471-4]
0% | CC(C)N(C)c1nc(Cl)c(-c2ccccc2)n(CC(=O)NCc2ccc(C(=N)N)cc2)c1=O [1517-31]
13% | N=C(N)c1ccc(CNC(=O)Cn2c(-c3ccccc3)c(Cl)nc(NCC(c3ccccc3)c3ccccc3)c2=O)cc1 [1507-09]
4% | N=C(N)c1ccc(CNC(=O)Cn2c(-c3ccccc3)c(Cl)nc(NCc3cc(F)cc(F)c3)c2=O)cc1 [1512-39]
0% | N=C(N)c1ccc(CNC(=O)Cn2c(-c3c(Cl)cccc3Cl)c(Cl)nc(NC3CCC3)c2=O)cc1 [1517-12]
0% | CSCC(C(=O)NCc1ccc(C(=N)N)cc1)n1c(-c2ccccc2)c(Cl)nc(NC2CCC2)c1=O (stereo not drawn) [1517-10]
8% | N=C(N)c1ccc(CNC(=O)Cn2c(-c3cccc(Cl)c3)c(Cl)nc(NCCN3CCOCC3)c2=O)cc1 [1471-28]
34% | N=C(N)c1ccc(CNC(=O)Cn2c(-c3ccc4c(c3)OCO4)c(Cl)nc(NCc3ccccc3)c2=O)cc1 [1471-41]
17% | N=C(N)c1ccc(CNC(=O)Cn2c(-c3ccc4c(c3)OCO4)c(Cl)nc(NCCc3cccnc3)c2=O)cc1 [1471-48]
4% | N=C(N)c1ccc(CNC(=O)Cn2c(-c3ccccc3)c(Cl)nc(NCCc3cccc(C(F)(F)F)c3)c2=O)cc1 [1512-41]
0% | CCc1c(Cl)nc(NCCc2ccc(Cl)cc2)c(=O)n1CC(=O)NCc1ccc(C(=N)N)cc1 [1471-58]
13% | N=C(N)c1ccc(CNC(=O)Cn2c(-c3ccccc3)c(Cl)nc(NCCc3ccccn3)c2=O)cc1 [1512-47]
0% | Nc1n[nH]c2cc(CNC(=O)Cn3c(-c4ccccc4)cnc(NCCc4ccccc4)c3=O)ccc12 [Example 39]
24% | N=C(N)c1ccc(CNC(=O)Cn2c(-c3ccc4c(c3)OCO4)c(Cl)nc(NCCc3ccncc3)c2=O)cc1 [1471-45]
0% | C[C@H](C(=O)NCc1ccc(C(=N)N)cc1)n1c(-c2ccccc2)c(Cl)nc(NCc2ccccc2)c1=O [1517-05]

Source: patent EP1586565A1, “Substituted polycyclic aryl and heteroaryl pyrazinones useful for selective inhibition of the coagulation cascade” (Pharmacia Corporation, priority 1999, dated 2000)
